Experimental data from patent US11413264B2, “Carbamoyl phenylalaninol analogs and uses thereof” (Jazz Pharmaceuticals Ireland Limited, priority 2017, dated 2022).
Where a name gives a salt, the structure may show the parent alone. Read-outs that look alike come from different tables or passages of the source.

Tests used:
[1] = target: T1, norepinephrine transporter (NET) (Homo sapiens, UniProt P23975); assay: Competitive radioligand binding assay, norepinephrine transporter (antagonist radioligand); conditions: compound at 10 μM
T1 construct: expressed in transfected cells; host or cells: CHO cells (membrane fractions)
Protocol: (§1) Compounds of the invention were tested for pharmacological activity in comparison to APC. Eight binding assays were carried out to provide a binding profile for each compound, including binding to dopamine transporter (DAT), norepinephrine transporter (NET), serotonin (5-HT) transporter (SERT), alpha2A adrenergic receptor (Alpha2A), alpha2C adrenergic receptor (Alpha2C), D2S dopamine receptor (D2S), D2L dopamine receptor (D2L), and vesicular monoamine transporter (VMAT2). Competitive binding assays using a radiolabeled ligand were carried out with each compound at 10 μM. The radioligand for each target was as follows: DAT—BTCP, NET—nisoxetine, SERT—imipramine, Alpha2A—yohimbine, Alpha2C—yohimbine, D2S—7-OH-DPAT, D2L—methylspiperone, VMAT2—tetrabenazine. The source of the receptors and transporters were prepared cell membrane fractions.

[2] = target: T2, alpha2A adrenergic receptor (Alpha2A) (Homo sapiens, UniProt P08913); assay: Competitive radioligand binding assay, α2A (antagonist radioligand); conditions: compound at 10 μM
T2 construct: expressed in transfected cells; host or cells: CHO cells (membrane fractions)
T2 sequence (P08913 1-465): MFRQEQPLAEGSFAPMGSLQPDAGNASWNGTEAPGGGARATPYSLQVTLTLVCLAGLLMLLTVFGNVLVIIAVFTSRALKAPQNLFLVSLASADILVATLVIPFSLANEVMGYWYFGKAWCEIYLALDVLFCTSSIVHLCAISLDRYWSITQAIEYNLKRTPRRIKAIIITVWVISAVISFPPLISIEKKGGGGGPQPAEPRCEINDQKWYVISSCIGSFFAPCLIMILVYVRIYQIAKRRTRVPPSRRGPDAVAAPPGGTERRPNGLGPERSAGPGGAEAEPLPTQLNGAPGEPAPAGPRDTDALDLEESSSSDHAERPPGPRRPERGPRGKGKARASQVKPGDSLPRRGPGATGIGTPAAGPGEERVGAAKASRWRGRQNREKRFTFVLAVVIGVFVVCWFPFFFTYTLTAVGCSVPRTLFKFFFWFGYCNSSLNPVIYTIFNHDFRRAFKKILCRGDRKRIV
Protocol: as §1

[3] = target: T3, D2L dopamine receptor (D2L) (Homo sapiens, UniProt P14416); assay: Competitive radioligand binding assay, D2L (antagonist radioligand); conditions: compound at 10 μM
T3 construct: expressed in transfected cells; host or cells: HEK-293 cells (membrane fractions)
Protocol: as §1

[4] = target: T4, dopamine transporter (DAT) (Homo sapiens, UniProt Q01959); assay: Competitive radioligand binding assay, dopamine transporter (antagonist radioligand); conditions: compound at 10 μM; for binding to the dopamine transporter (in words): summary
T4 construct: expressed in transfected cells; host or cells: CHO cells (membrane fractions)
Protocol: as §1

[5] = target: T5, alpha2C adrenergic receptor (Alpha2C) (Homo sapiens, UniProt P18825); assay: Competitive radioligand binding assay, α2C (antagonist radioligand); conditions: compound at 10 μM
T5 construct: expressed in transfected cells; host or cells: CHO cells (membrane fractions)
T5 sequence (P18825 1-462): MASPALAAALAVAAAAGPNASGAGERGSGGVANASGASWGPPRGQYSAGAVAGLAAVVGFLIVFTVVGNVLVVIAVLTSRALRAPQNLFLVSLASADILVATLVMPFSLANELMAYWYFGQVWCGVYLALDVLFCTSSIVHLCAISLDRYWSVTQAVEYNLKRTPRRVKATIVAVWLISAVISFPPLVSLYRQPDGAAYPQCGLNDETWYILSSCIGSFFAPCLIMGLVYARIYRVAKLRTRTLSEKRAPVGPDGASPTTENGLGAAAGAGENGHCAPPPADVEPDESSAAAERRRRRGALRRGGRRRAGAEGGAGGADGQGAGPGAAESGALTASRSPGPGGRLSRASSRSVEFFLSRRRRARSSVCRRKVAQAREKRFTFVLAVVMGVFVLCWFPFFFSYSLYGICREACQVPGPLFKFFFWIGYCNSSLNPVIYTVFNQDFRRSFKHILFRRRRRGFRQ
Protocol: as §1

[6] = target: T6, vesicular monoamine transporter (VMAT2) (Rattus norvegicus, UniProt Q01827); assay: Competitive radioligand binding assay, VMAT2 transporter (antagonist radioligand); conditions: compound at 10 μM
T6 construct: Rat brain; from tissue; host or cells: rat brain minus cerebellum, membrane fraction
Protocol: as §1

[7] = target: T7, serotonin (5-HT) transporter (SERT) (Homo sapiens, UniProt P31645); assay: Competitive radioligand binding assay, 5-HT transporter (antagonist radioligand); conditions: compound at 10 μM
T7 construct: expressed in transfected cells; host or cells: CHO cells (membrane fractions)
Protocol: as §1

[8] = target: T8, D2S dopamine receptor (D2S) (Homo sapiens, UniProt P14416); assay: Competitive radioligand binding assay, D2S (agonist radioligand); conditions: compound at 10 μM
T8 construct: expressed in transfected cells; host or cells: HEK-293 cells (membrane fractions)
Protocol: as §1

[9] = Norepinephrine transporter, 1st individual result, read-out: % inhibition of control specific binding, 1st
[10] = Norepinephrine transporter, 2nd individual result, read-out: % inhibition of control specific binding, 2nd
[11] = Norepinephrine transporter, mean, read-out: % inhibition of control specific binding, Mean
[12] = [3H]nisoxetine 1 nM, human recombinant (CHO cells), read-out: % Inhibition of Binding at Each Transporter or Receptor Target, NET
[13] = 1st individual result, read-out: % inhibition of control specific binding, 1st
[14] = 2nd individual result, read-out: % inhibition of control specific binding, 2nd
[15] = mean, read-out: % inhibition of control specific binding, Mean
[16] = D2L, 1st individual result, read-out: % inhibition of control specific binding, 1st
[17] = D2L, 2nd individual result, read-out: % inhibition of control specific binding, 2nd
[18] = D2L, mean, read-out: % inhibition of control specific binding, Mean
[19] = [3H]methyl-spiperone 0.3 nM, human recombinant (HEK-293 cells), read-out: % Inhibition of Binding at Each Transporter or Receptor Target, D2L
[20] = Dopamine transporter, 1st individual result, read-out: % inhibition of control specific binding, 1st
[21] = Dopamine transporter, 2nd individual result, read-out: % inhibition of control specific binding, 2nd
[22] = Dopamine transporter, mean, read-out: % inhibition of control specific binding, Mean
[23] = [3H]BTCP 4 nM, human recombinant (CHO cells), read-out: % Inhibition of Binding at Each Transporter or Receptor Target, DAT
[24] = VMAT2 transporter, single value, read-out: % inhibition of control specific binding, 1st
[25] = [3H]dihydrotetrabenazine 10 nM, rat brain (minus cerebellum), read-out: % Inhibition of Binding at Each Transporter or Receptor Target, VMAT2
[26] = 5-HT transporter, 1st individual result, read-out: % inhibition of control specific binding, 1st
[27] = 5-HT transporter, 2nd individual result, read-out: % inhibition of control specific binding, 2nd
[28] = 5-HT transporter, mean, read-out: % inhibition of control specific binding, Mean
[29] = [3H]imipramine 2 nM, human recombinant (CHO cells), read-out: % Inhibition of Binding at Each Transporter or Receptor Target, SERT
[30] = D2S, 1st individual result, read-out: % inhibition of control specific binding, 1st
[31] = D2S, 2nd individual result, read-out: % inhibition of control specific binding, 2nd
[32] = D2S, mean, read-out: % inhibition of control specific binding, Mean
[33] = [3H]7-OH-DPAT 1 nM, human recombinant (HEK-293 cells), read-out: % Inhibition of Binding at Each Transporter or Receptor Target, D2S

T8 sequence (P14416 1-414 isoform P14416-2): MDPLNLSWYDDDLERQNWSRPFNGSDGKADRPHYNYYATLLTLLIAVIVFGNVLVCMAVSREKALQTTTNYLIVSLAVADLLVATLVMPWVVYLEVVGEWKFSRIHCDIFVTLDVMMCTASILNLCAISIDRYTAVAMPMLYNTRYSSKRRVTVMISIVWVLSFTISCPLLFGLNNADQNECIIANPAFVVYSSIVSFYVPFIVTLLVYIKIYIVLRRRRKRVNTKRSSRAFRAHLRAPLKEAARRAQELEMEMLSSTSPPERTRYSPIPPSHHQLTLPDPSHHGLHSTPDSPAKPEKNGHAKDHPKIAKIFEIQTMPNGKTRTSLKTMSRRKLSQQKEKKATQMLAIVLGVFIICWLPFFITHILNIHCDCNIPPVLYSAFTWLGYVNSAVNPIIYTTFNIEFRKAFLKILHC
T1 sequence (P23975 whole entry): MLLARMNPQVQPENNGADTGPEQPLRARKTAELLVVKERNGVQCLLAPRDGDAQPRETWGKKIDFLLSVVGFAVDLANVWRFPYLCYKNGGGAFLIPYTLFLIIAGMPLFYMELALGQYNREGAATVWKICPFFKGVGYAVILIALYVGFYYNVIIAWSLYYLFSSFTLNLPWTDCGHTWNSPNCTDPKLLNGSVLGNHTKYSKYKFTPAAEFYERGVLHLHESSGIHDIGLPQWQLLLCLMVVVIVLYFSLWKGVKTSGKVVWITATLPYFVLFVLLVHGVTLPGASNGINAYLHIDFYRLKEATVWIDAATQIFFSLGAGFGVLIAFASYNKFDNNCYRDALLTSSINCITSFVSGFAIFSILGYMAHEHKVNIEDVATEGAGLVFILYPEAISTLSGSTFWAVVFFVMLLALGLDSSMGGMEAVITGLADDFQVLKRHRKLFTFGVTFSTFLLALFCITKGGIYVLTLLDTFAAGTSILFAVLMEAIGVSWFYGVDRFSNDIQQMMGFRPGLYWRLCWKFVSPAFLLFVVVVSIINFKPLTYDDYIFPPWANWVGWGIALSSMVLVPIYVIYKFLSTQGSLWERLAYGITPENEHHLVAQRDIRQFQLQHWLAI
T7 sequence (P31645 whole entry): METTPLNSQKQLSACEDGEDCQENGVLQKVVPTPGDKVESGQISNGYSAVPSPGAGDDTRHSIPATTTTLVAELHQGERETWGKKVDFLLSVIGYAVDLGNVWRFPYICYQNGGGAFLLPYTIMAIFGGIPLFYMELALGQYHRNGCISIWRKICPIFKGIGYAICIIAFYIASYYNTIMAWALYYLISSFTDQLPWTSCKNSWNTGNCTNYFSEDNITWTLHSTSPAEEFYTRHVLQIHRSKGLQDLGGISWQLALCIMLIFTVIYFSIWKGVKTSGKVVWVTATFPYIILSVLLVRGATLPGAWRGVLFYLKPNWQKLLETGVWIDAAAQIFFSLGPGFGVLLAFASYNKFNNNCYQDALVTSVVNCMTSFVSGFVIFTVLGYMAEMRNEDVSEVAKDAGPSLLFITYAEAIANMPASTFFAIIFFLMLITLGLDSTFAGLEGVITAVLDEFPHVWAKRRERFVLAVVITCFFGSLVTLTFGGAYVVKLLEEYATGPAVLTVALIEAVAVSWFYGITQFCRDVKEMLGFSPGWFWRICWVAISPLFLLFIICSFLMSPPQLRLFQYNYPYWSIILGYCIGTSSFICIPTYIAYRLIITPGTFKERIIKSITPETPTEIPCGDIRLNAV
T4 sequence (Q01959 whole entry): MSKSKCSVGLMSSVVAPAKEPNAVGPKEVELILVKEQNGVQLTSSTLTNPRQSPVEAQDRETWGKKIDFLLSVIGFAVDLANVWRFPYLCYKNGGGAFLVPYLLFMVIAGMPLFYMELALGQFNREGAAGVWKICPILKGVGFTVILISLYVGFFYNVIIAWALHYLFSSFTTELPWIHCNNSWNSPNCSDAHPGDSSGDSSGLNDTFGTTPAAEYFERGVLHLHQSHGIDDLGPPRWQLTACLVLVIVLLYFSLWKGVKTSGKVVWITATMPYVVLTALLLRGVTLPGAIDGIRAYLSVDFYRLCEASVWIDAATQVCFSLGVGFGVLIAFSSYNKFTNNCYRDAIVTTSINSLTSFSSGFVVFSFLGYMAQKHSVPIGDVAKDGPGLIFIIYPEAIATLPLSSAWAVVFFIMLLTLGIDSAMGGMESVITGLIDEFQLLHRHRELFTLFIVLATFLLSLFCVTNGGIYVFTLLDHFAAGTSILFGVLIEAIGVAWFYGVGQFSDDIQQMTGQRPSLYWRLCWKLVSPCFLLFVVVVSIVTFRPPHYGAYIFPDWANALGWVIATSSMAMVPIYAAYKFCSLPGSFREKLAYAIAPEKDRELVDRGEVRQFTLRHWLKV
T6 sequence (Q01827 whole entry): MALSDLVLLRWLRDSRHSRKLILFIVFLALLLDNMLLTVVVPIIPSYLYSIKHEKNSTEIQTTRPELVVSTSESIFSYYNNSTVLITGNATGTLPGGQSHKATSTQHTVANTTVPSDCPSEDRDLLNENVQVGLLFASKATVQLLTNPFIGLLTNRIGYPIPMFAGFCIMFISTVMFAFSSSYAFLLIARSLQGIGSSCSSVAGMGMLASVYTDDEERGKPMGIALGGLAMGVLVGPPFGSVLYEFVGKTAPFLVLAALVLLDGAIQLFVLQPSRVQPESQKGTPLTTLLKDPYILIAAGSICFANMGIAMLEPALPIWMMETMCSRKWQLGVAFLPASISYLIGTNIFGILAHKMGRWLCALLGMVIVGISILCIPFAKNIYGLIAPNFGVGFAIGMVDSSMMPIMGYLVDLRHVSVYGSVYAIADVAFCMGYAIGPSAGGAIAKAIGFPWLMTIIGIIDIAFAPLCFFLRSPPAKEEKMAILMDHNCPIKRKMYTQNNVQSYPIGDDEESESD
T3 sequence (P14416 whole entry): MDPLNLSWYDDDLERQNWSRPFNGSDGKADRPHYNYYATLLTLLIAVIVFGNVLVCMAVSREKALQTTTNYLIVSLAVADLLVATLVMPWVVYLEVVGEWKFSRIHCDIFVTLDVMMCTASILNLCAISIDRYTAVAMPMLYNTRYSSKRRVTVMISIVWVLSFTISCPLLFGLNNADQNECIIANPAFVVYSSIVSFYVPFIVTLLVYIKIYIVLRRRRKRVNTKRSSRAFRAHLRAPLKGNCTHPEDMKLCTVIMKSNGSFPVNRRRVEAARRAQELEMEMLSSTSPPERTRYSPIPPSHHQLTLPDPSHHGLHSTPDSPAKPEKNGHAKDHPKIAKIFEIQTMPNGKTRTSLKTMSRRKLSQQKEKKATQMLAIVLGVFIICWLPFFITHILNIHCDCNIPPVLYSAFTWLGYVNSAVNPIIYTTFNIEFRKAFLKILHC

SMILES | inhibition at 10 µM [1, 9] [%] | inhibition at 10 µM [1, 10] [%] | inhibition at 10 µM [1, 11] [%] | inhibition at 10 µM [1, 12] [%] | inhibition at 10 µM [2, 13] [%] | inhibition at 10 µM [2, 14] [%] | inhibition at 10 µM [2, 15] [%] | inhibition at 10 µM [3, 16] [%] | inhibition at 10 µM [3, 17] [%] | inhibition at 10 µM [3, 18] [%] | inhibition at 10 µM [3, 19] [%] | inhibition at 10 µM [4, 20] [%] | inhibition at 10 µM [4, 21] [%] | inhibition at 10 µM [4, 22] [%] | inhibition at 10 µM [4, 23] [%] | binding to the dopamine transporter (in words) [4] | inhibition at 10 µM [5, 13] [%] | inhibition at 10 µM [5, 14] [%] | inhibition at 10 µM [5, 15] [%] | inhibition at 10 µM [6, 24] [%] | also measured
NC(=O)OC[C@H](N)Cc1ccccc1 [APC, (R)-2-amino-3-phenylpropyl carbamate, reference compound] | 6.9 | 16 | 11.4 | 11.4 | 5.2 | 8.7 | 7 | -0.1 | 4.6 | 2.3 | 2.3 | 79.3 | 81.1 | 80.2 | 80.2 | substantial binding | 4.1 | 2.3 | 3.2 | 7 | inhibition at 10 µM [6, 25]: 7%; inhibition at 10 µM [7, 26]: -6.3%; inhibition at 10 µM [7, 27]: -3.3%; inhibition at 10 µM [7, 28]: -4.8%; inhibition at 10 µM [7, 29]: -4.8%; inhibition at 10 µM [8, 30]: 0.7%; inhibition at 10 µM [8, 31]: 8.2%; inhibition at 10 µM [8, 32]: 4.4%; inhibition at 10 µM [8, 33]: 4.4%
NC(=O)NC[C@H](N)Cc1ccccc1 [Compound 3, (R)-1-(2-Amino-3-phenylpropyl)urea hydrochloride] | 42.6 | 23 | 32.8 | 32.8 | 1.7 | 7.8 | 4.8 | -6.7 | 7.6 | 0.5 | 0.5 | 86.8 | 90.5 | 88.6 | 88.6 | substantial binding | 8.6 | 22.6 | 15.6 | 0 | inhibition at 10 µM [6, 25]: 0%; inhibition at 10 µM [7, 26]: -2.4%; inhibition at 10 µM [7, 27]: -0.4%; inhibition at 10 µM [7, 28]: -1.4%; inhibition at 10 µM [7, 29]: -1.4%; inhibition at 10 µM [8, 30]: -1.6%; inhibition at 10 µM [8, 31]: 0.2%; inhibition at 10 µM [8, 32]: -0.7%; inhibition at 10 µM [8, 33]: -0.7%
NC(=O)CC[C@H](N)Cc1ccccc1 [Compound 4, (S)-4-Amino-5-phenylpentanamide hydrochloride] | 7 | -21.9 | -7.5 | -7.5 | 7.8 | -9.3 | -0.8 | 1.4 | 0.8 | 1.1 | 1.1 | 52.9 | 60 | 56.5 | 56.5 | substantial binding | 3.4 | 2.3 | 2.9 | 0 | inhibition at 10 µM [6, 25]: 0%; inhibition at 10 µM [7, 26]: -2.9%; inhibition at 10 µM [7, 27]: 1.8%; inhibition at 10 µM [7, 28]: -0.5%; inhibition at 10 µM [7, 29]: -0.5%; inhibition at 10 µM [8, 30]: -8.2%; inhibition at 10 µM [8, 31]: -3.7%; inhibition at 10 µM [8, 32]: -6%; inhibition at 10 µM [8, 33]: -6%
